# Reference: PubChem BioAssay (NCI)
#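 Dose response: 5 concentrations. Exposure: 48 h. Format: 96-well plates. Endpoint: linear interpolation; highest concentration if not reached. The concentration for 50% growth inhibition is given as GI50. Definition used: TGI = concentration required for complete inhibition of growth.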
# What was measured:
# Assay in all cases: NCI anticancer screen, dose series, 48 h
# M14 melanoma = test system: M14 melanoma
# TK-10 renal = test system: TK-10 renal
# MCF7 breast = test system: MCF7 breast
# SF-295 CNS = test system: SF-295 CNS
# IGROV1 ovarian = test system: IGROV1 ovarian
# CCRF-CEM leukemia = test system: CCRF-CEM leukemia
# MDA-MB-435 = test system: MDA-MB-435
# UO-31 renal = test system: UO-31 renal
# U251 CNS = test system: U251 CNS
# EKVX NSCLC = test system: EKVX NSCLC
Compound,TGI (M14 melanoma) [µM],TGI (TK-10 renal) [µM],TGI (MCF7 breast) [µM],TGI (SF-295 CNS) [µM],TGI (IGROV1 ovarian) [µM],TGI (CCRF-CEM leukemia) [µM],TGI (MDA-MB-435) [µM],TGI (UO-31 renal) [µM],TGI (U251 CNS) [µM],TGI (EKVX NSCLC) [µM],GI50 (TK-10 renal) [nM],GI50 (MCF7 breast) [nM],GI50 (SF-295 CNS) [nM],GI50 (IGROV1 ovarian) [nM],GI50 (CCRF-CEM leukemia) [nM],GI50 (MDA-MB-435) [nM],GI50 (UO-31 renal) [nM],GI50 (EKVX NSCLC) [nM],GI50 (M14 melanoma) [nM],GI50 (U251 CNS) [nM]
CN(NC(=O)/C(=C/c1ccc(O)cc1)NC(=O)c1ccccc1)c1ccnc2cc(Cl)ccc12,36.6,30,30.4,32.3,34.1,61.5,32.3,18.6,28.5,42.9,–,–,–,–,–,–,–,–,–,–
COC(c1ccsc1)C(C#N)(C#N)N=Cc1ccsc1 (stereo unspecified),33.7,36.2,15.6,34.9,52,39,29.6,26.2,33.5,32.9,–,–,–,–,–,–,–,–,–,–
COc1cc(/C=C2\C[C@H]3[C@@H]4CC=C5C[C@@H](N6CCCC6)CC[C@]5(C)[C@H]4CC[C@]3(C)[C@H]2O)cc(OC)c1OC,4.74,34.6,22,26.6,30,> 100,18.5,6.6,28.8,30.2,–,–,–,–,–,–,–,–,–,–
Oc1ccc2c(c1)-c1c(c3cc(O)ccc3n1CCN1CCOCC1)CC2,50.1,> 100,57.8,47.2,> 100,68.7,48.8,57.9,49,> 100,–,–,–,–,–,–,–,–,–,–
O=S(=O)(c1cc(Cl)ccc1Cl)N1CCN(S(=O)(=O)c2cc(Cl)ccc2Cl)CC1,> 100,> 100,> 100,> 100,> 100,–,> 100,> 100,> 100,–,–,–,–,–,–,–,–,–,–,–
C/C(O)=C/c1nc2ccccc2nc1/C=C(/C)O,44.4,42.2,–,67.5,54.7,45.9,59.8,56,50.9,71.5,–,–,–,–,–,–,–,–,–,–
CCCCC1(N=[N+]=[N-])C(=O)c2cccc3c2N(CCC3)C1=O (stereo unspecified),> 100,> 100,> 100,> 100,> 100,> 100,> 100,–,> 100,> 100,–,–,–,–,–,–,–,–,–,–
COc1cc(Oc2nc3ccccc3nc2C(=O)O)cc(OC)c1OC,> 100,> 100,–,> 100,> 100,> 100,> 100,> 100,> 100,> 100,–,–,–,–,–,–,–,–,–,–
CC(=O)Nc1ccc(S(=O)(=O)Nc2nnc(S(N)(=O)=O)s2)cc1,> 100,> 100,> 100,> 100,–,–,> 100,> 100,> 100,> 100,–,–,–,–,–,–,–,–,–,–
CCNc1nc(N)c(C(=O)c2ccc(Cl)cc2)s1,> 100,54.4,> 100,–,> 100,22.6,> 100,40.2,> 100,45.5,–,–,–,–,–,–,–,–,–,–
CC1(C)O[C@H](C(=O)O)[C@@H](C(=O)O)O1,> 100,> 100,> 100,> 100,> 100,> 100,> 100,–,> 100,> 100,–,–,–,–,–,–,–,–,–,–
CN(C)N=Nc1ccc([N+](=O)[O-])cc1C(N)=O,–,–,> 100,> 100,> 100,> 100,–,> 100,> 100,> 100,–,–,–,–,–,–,–,–,–,–
Cc1cc(S(=O)(=O)Nc2nc3ccsc3c(=O)n2N)c(S)cc1Cl,> 100,> 100,> 100,> 100,> 100,> 100,> 100,–,> 100,> 100,–,–,–,–,–,–,–,–,–,–
CSC1=Nc2ccccc2-c2nc(-c3ccccc3)cc(-c3ccccc3)c2C1,37.1,36.8,–,64.2,32.1,> 100,> 100,76.6,44.4,> 100,–,–,–,–,–,–,–,–,–,–
O=c1c2ccccc2oc2c1ccc1ncccc12,–,32.6,27.8,45.9,26.4,> 100,> 100,40.9,–,96.9,–,–,–,–,–,–,–,–,–,–
Nn1c(Cc2ccc(Cl)cc2)n[nH]c1=O,> 100,> 100,–,> 100,> 100,> 100,> 100,> 100,> 100,> 100,–,–,–,–,–,–,–,–,–,–
COc1c(-c2cc(C)c(Cl)c(=O)[nH]2)c(O)c(OC)c2occc12,> 100,> 100,> 100,> 100,> 100,–,> 100,> 100,> 100,> 100,–,–,–,–,–,–,–,–,–,–
O=C(NCC1Nc2ccncc2S(=O)(=O)N1)c1ccc(Br)cc1 (stereo unspecified),90.8,> 100,> 100,> 100,> 100,–,37.2,> 100,> 100,> 100,–,–,–,–,–,–,–,–,–,–
CO/C(=N\N=C\c1ccc(Cl)cc1)c1ccncc1,> 100,> 100,–,> 100,> 100,> 100,–,> 100,> 100,> 100,–,–,–,–,–,–,–,–,–,–
Cc1oc2nc1C(=O)NCc1nc(cs1)C(=O)N[C@H](C(C)C)c1nc(cs1)C(=O)N[C@H]2C,> 100,–,> 100,99.4,> 100,> 100,> 100,> 100,> 100,> 100,–,–,–,–,–,–,–,–,–,–
Cc1cn(C2CC(O)C(CO)C2C)c(=O)[nH]c1=O (stereo unspecified),> 100,–,–,> 100,> 100,> 100,–,> 100,> 100,> 100,–,–,–,–,–,–,–,–,–,–
CC(C)OC(=O)c1ccc(NCC2=CC(=O)C=CC2=O)cc1Cl,> 100,30,> 60.1,41.4,30.5,–,35.1,13.9,54.9,32.5,–,–,–,–,–,–,–,–,–,–

Compound,TGI (M14 melanoma) [µM],TGI (TK-10 renal) [µM],TGI (MCF7 breast) [µM],TGI (SF-295 CNS) [µM],TGI (IGROV1 ovarian) [µM],TGI (CCRF-CEM leukemia) [µM],TGI (MDA-MB-435) [µM],TGI (UO-31 renal) [µM],TGI (U251 CNS) [µM],TGI (EKVX NSCLC) [µM],GI50 (TK-10 renal) [nM],GI50 (MCF7 breast) [nM],GI50 (SF-295 CNS) [nM],GI50 (IGROV1 ovarian) [nM],GI50 (CCRF-CEM leukemia) [nM],GI50 (MDA-MB-435) [nM],GI50 (UO-31 renal) [nM],GI50 (EKVX NSCLC) [nM],GI50 (M14 melanoma) [nM],GI50 (U251 CNS) [nM]
CCOC(=O)c1c(SC(=O)c2cc(OC)c(OC)c(OC)c2)n(-c2ccccc2)c(=S)n(-c2ccccc2)c1=O,> 100,> 100,> 100,> 100,> 100,> 100,> 100,–,> 100,> 100,–,–,–,–,–,–,–,–,–,–
CCN1CCN(C(=O)[C@]23CC[C@@H](C)[C@H](C)[C@@H]2C2=CC[C@@H]4[C@@]5(C)C/C(=C/c6cccnc6)C(=O)C(C)(C)[C@@H]5CC[C@@]4(C)[C@]2(C)CC3)CC1,–,9.4,3.42,3.05,3.87,8.97,3.49,2.65,–,7.32,2870,1640,1630,1890,2780,1700,1360,2170,–,–
CC(=O)Nc1ccc2c(C(=O)O)c(C)c(=O)[nH]c2n1,> 100,> 100,> 100,> 100,> 100,–,> 100,> 100,> 100,> 100,–,–,–,–,–,–,–,–,–,–
C(=N\Nc1ncc(-c2cc3cc4c(cc3o2)OCO4)s1)/c1c[nH]c2ccccc12,12.7,5.59,5.39,4.31,–,> 100,4.44,1.57,–,6.44,2400,566,1820,–,392,1740,348,1270,3340,–
COC12C=C/C(=C(/C(=O)OCc3ccncn3)C(=O)CCCCCCCCC3(OC)C=C/C(=C(/C(=O)OCc4ccncn4)C(=O)CCCCCCCC1)O3)O2,3.23,2.4,11,0.703,4.46,1.55,0.405,–,1.54,2.34,395,314,221,418,251,194,–,350,286,335
NNC(=O)CC(=O)Nc1ccc(Cl)cc1,–,> 100,> 100,> 100,> 100,> 100,> 100,> 100,> 100,> 100,–,–,–,–,–,–,–,–,–,–
COc1ccc2oc(S(=O)(=O)N3CC(CCl)c4ccc([N+](=O)[O-])cc43)cc2c1 (stereo unspecified),32.7,> 55.2,14.4,0.196,–,> 100,0.169,> 40.3,0.348,48.8,–,–,–,–,–,–,–,–,–,–
N#CCCNCCN(CCN(C(=O)Nc1ccccc1)c1ccccc1)C(=O)Nc1ccccc1,46.1,> 100,> 100,> 100,> 100,> 100,–,> 100,> 100,> 100,–,–,–,–,–,–,–,–,–,–
Cc1cc2c(cc1-c1cc3c(cc1C)C(C(C)C)=C(O)C(=O)/C3=C\Nc1nc(-c3ccccc3)cs1)/C(=C/Nc1nc(-c3ccccc3)cs1)C(=O)C(O)=C2C(C)C,30.1,–,41.1,40.9,53.4,64.4,30.6,–,27.5,52.1,–,–,–,–,–,–,–,–,–,–
C=Nc1ccc([N+](=O)[O-])cc1,> 100,> 100,–,> 100,> 100,> 100,–,> 100,> 100,> 100,–,–,–,–,–,–,–,–,–,–
O=C1COC(c2ccccc2O)=NN1CCCN1CCCC1,> 100,> 100,> 100,> 100,> 100,–,> 100,> 100,> 100,> 100,–,–,–,–,–,–,–,–,–,–
CCOC(=O)C(=[N+]=[N-])C(=O)C[N+]12CCN(CC1)CC2,> 100,> 100,–,> 100,> 100,> 100,> 100,> 100,> 100,–,–,–,–,–,–,–,–,–,–,–
CCCC(Sc1nc(N)nc2nc[nH]c12)C(=O)O (stereo unspecified),> 100,88,> 100,> 100,> 100,> 100,> 100,> 100,> 100,–,–,–,–,–,–,–,–,–,–,–
CCN(CC)CCCCCCCCNc1c2ccc(Cl)cc2nc2ccc(OC)cc12,3.34,4.24,–,3.95,20.5,6.32,3.74,4.34,2.97,6.13,1830,–,1680,3440,634,1870,1720,2110,1840,1380
O=C1C=Cc2c(Cl)sc(Cl)c21,3.99,4.39,3.9,27.1,3.09,1.36,5.31,–,> 100,16.8,–,–,–,–,–,–,–,–,–,–
Cc1ccccc1N=C(N)NC#N,> 100,> 100,> 100,–,> 100,> 100,> 100,> 100,> 100,> 100,–,–,–,–,–,–,–,–,–,–
O=[N+]([O-])C(/C(Cl)=C(/Cl)N1CCOCC1)=C1\NCCO1,> 100,–,> 100,> 100,–,> 100,> 100,> 100,> 100,> 100,–,–,–,–,–,–,–,–,–,–
CCSSCS(C)(=O)=O,55.3,> 100,68.5,> 100,–,> 100,> 100,24.4,> 100,> 100,–,–,–,–,–,–,–,–,–,–
CC1(C)CCC[C@]2(C)[C@@H]1CC[C@@]13O[C@@H]1C1=C(CO)C(=O)O[C@]14O[C@@H]4[C@@H]23,23.6,38,> 63.9,32.3,27.3,–,> 53.1,18.7,29.2,24.9,–,–,–,–,–,–,–,–,–,–
C[C@]12CC[C@H]3[C@@H](CCC4=CC(=O)C=C[C@@]43O)[C@@H]1CCC2=O,> 100,–,> 100,> 100,> 100,> 100,> 100,> 100,> 100,> 100,–,–,–,–,–,–,–,–,–,–
CC(=O)N1N=C(c2c(O)ccc3ccccc23)CC1C(=O)c1ccco1 (stereo unspecified),> 100,> 100,47.7,> 100,> 100,57,> 100,> 100,> 100,–,–,–,–,–,–,–,–,–,–,–
